pIC50: −log10 of the molar value.
Each compound was assayed against hQC (Homo sapiens, UniProt Q16769) (assay: Fluorometric (fluorescent) assay of hQC inhibition, IC50). Details: hQC inhibition; read-out: IC50.
Assay type: biochemical
Experimental: All compounds were immediately tested regarding their activity as hQC inhibitors.
The purity of the compounds was determined by HPLC-MS. The IC50 value against hQC was measured using the fluorescent assay.
All measurements were performed with a BioAssay Reader HTS-7000Plus for microplates (Perkin Elmer) at 30° C. QC activity was evaluated fluorometrically using H-Gln-βNA. The samples consisted of 0.2 mM fluorogenic substrate, 0.25 U pyroglutamyl aminopeptidase (Unizyme, Horsholm, Denmark) in 0.2 M Tris/HCl, pH 8.0 containing 20 mM EDTA and an appropriately diluted aliquot of QC in a final volume of 250 μl. Excitation/emission wavelengths were 320/410 nm. The assay reactions were initiated by addition of glutaminyl cyclase. QC activity was determined from a standard curve of β-naphthylamine under assay conditions. One unit is defined as the amount of QC catalyzing the formation of 1 μmol pGlu-βNA from H-Gln-βNA per minute under the described conditions.
In a second fluorometric assay, QC was activity determined using H-Gln-AMC as substrate. Reactions were carried out at 30° C. utilizing the NOVOStar reader for microplates (BMG labtechnologies). The samples consisted of varying concentrations of the fluorogenic substrate, 0.1 U pyroglutamyl aminopeptidase (Qiagen) in 0.05 M Tris/HCl, pH 8.0 containing 5 mM EDTA and an appropriately diluted aliquot of QC in a final volume of 250 μl. Excitation/emission wavelengths were 380/460 nm. The assay reactions were initiated by addition of glutaminyl cyclase. QC activity was determined from a standard curve of 7-amino-4-methylcoumarin under assay conditions. The kinetic data were evaluated using GraFit sofware.
For inhibitor testing, the sample composition was the same as described above, except of the putative inhibitory compound added. For a rapid test of QC-inhibition, samples contained 4 mM of the respective inhibitor and a substrate concentration at 1 KM. For detailed investigations of the inhibition and determination of Ki-values, influence of the inhibitor on the auxiliary enzymes was investigated first. […] The inhibitory constant was evaluated by fitting the set of progress curves to the general equation for competitive inhibition using GraFit software.

Sequence of hQC (Q16769 29-361): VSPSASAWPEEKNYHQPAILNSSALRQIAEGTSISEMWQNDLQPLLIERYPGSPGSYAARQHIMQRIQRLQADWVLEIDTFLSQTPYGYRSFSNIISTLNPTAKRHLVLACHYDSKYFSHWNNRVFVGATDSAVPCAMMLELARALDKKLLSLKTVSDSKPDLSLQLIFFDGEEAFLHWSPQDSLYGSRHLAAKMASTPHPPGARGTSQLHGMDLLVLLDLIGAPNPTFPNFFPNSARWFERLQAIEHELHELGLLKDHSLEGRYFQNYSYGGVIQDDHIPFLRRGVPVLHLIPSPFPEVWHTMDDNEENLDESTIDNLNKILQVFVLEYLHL

| Compound | pIC50 |
| --- | --- |
| COc1ccc(C(Nc2ccc3[nH]cnc3c2)c2nnnn2Cc2ccc(Cl)cc2)cc1F (stereo not shown) [compound 125, (1H-Benzoimidazol-5-yl)-[[1-(4-chloro-benzyl)-1H-tetrazol-5-yl]-(3-fluoro-4-methoxy-phenyl)-methyl]-amine] | 5.51 |
| Clc1ccccc1Cn1nnnc1C(Nc1ccc2[nH]cnc2c1)c1cccnc1 (stereo not shown) [compound 135, (1H-Benzoimidazol-5-yl)-{[1-(2-chloro-benzyl)-1H-tetrazol-5-yl]-pyridin-3-yl-methyl}-amine] | 5.07 |
| Clc1ccc(Cn2nnnc2C(Nc2ccc3[nH]cnc3c2)c2ccc3c(c2)OCO3)cc1 (stereo not shown) [compound 160, {Benzo[1,3]dioxol-5-yl-[1-(4-chloro-benzyl)-1H-tetrazol-5-yl]-methyl}-(1H-benzoimidazol-5-yl)-amine] | 6.40 |
| C/C=C/C=C/C(Nc1ccc2[nH]cnc2c1)c1nnnn1Cc1cccnc1 (stereo not shown) [compound 173, (1H-Benzoimidazol-5-yl)-[(2E,4E)-1-(1-pyridin-3-ylmethyl-1H-tetrazol-5-yl)-hexa-2,4-dienyl]-amine] | 5.07 |
| COC(=O)c1cccc(C(Nc2ccc3[nH]cnc3c2)c2nnnn2-c2ccc(C(C)(C)C)cc2)c1 (stereo not shown) [compound 128, 3-{(1H-Benzoimidazol-5-ylamino)-[1-(4-tert-butyl-phenyl)-1H-tetrazol-5-yl]-methyl}-benzoic acid methyl ester] | 5.17 |
| Cc1ccc(C(Nc2ccc3[nH]cnc3c2)c2nnnn2CCCN2CCCC2=O)cc1C (stereo not shown) [compound 164, 1-(3-{5-[(1H-Benzoimidazol-5-ylamino)-(3,4-dimethyl-phenyl)-methyl]-tetrazol-1-yl}-propyl)-pyrrolidin-2-one] | 5.31 |
| CCOC(=O)C1CCCCC1n1nnnc1C(Nc1ccc2[nH]cnc2c1)c1c[nH]c2cc(C)ccc12 (stereo not shown) [compound 196] | 5.07 |

Results, then the compound that gave them:

| pIC50 | Compound |
| --- | --- |
| 5.31 | CCOC(=O)C1CCCCC1n1nnnc1C(Nc1ccc2[nH]cnc2c1)c1ccc(C)c(C)c1 (stereo not shown) [compound 155] |
| 5.24 | Cc1cc(C)cc(C(Nc2ccc3[nH]cnc3c2)c2nnnn2Cc2ccccc2)c1 (stereo not shown) [compound 124, (1H-Benzoimidazol-5-yl)-[(1-benzyl-1H-tetrazol-5-yl)-(3,5-dimethyl-phenyl)-methyl]-amine] |
| 5.31 | CC(Cc1ccc2c(c1)OCO2)C(Nc1ccc2[nH]cnc2c1)c1nnnn1CC(=O)OC(C)(C)C (stereo not shown) [compound 149, {5-[3-Benzo[1,3]dioxol-5-yl-1-(1H-benzoimidazol-5-ylamino)-2-methyl-propyl]-tetrazol-1-yl}-acetic acid tert-butyl ester] |
| 5.89 | c1ccc(Cn2nnnc2C(Nc2ccc3[nH]cnc3c2)c2ccc3nsnc3c2)cc1 (stereo not shown) [compound 147] |
| 5.31 | Brc1cc(Br)cc(C(Nc2ccc3[nH]cnc3c2)c2nnnn2-c2ccccc2OCc2ccccc2)c1 (stereo not shown) [compound 180, (1H-Benzoimidazol-5-yl)-[[1-(2-benzyloxy-phenyl)-1H-tetrazol-5-yl]-(3,5-dibromo-phenyl)-methyl]-amine] |
| 5.17 | c1nc2cc(NC(c3ccc(N4CCCC4)cc3)c3nnnn3CC3CCCO3)ccc2[nH]1 (stereo not shown) [compound 134, (1H-Benzoimidazol-5-yl)-{(4-pyrolidin-1-yl-phenyl)-[1-(tetrahydro-furan-2-ylmethyl)-1H-tetrazol-5-yl]-methyl}-amine] |

Same assay, conditions: read-out: IC50

| Compound | pIC50 |
| --- | --- |
| COCCCn1nnnc1C(NCCCn1ccnc1)c1ccc2ccccc2n1 (stereo not shown) [compound 36, (3-Imidazol-1-yl-propyl)-{[1-(3-methoxy-propyl)-1H-tetrazol-5-yl]-quinolin-2-yl-methyl}-amine] | 5.51 |
| COc1cccc(C(Nc2ccc3[nH]cnc3c2)c2nnnn2CC2CCCO2)c1 (stereo not shown) [compound 89, (1H-Benzoimidazol-5-yl)-{(3-methoxy-phenyl)-[1-(tetrahydro-furan-2-ylmethyl)-1H-tetrazol-5-yl]-methyl}-amine] | 5.12 |
| Oc1cccc2ccc(C(NCCCn3ccnc3)c3nnnn3C3CCCC3)nc12 (stereo not shown) [compound 25, 2-[(1-Cyclopentyl-1H-tetrazol-5-yl)-(3-imidazol-1-yl-propylamino)-methyl]-quinolin-8-ol] | 5.66 |
| COCCCn1nnnc1C(NCCCn1ccnc1)c1ccc2cccc(O)c2n1 (stereo not shown) [compound 34, 2-{(3-Imidazol-1-yl-propylamino)-[1-(3-methoxy-propyl)-1H-tetrazol-5-yl]-methyl}-quinolin-8-ol] | 5.66 |
| Cn1nnnc1C(NCCCn1ccnc1)c1ccc2cccc(O)c2n1 (stereo not shown) [compound 29, 2-[(3-imidazol-1-yl-propylamino)-(1-methyl-1H-tetrazol-5-yl)-methyl]-quinolin-8-ol] | 5.51 |
| CC(C)(C)Cn1nnnc1C(NCCCn1ccnc1)c1ccc2ccccc2n1 (stereo not shown) [compound 66, {[1-(2,2-Dimethyl-propyl)-1H-tetrazol-5-yl]-quinolin-2-yl-methyl}-(3-imidazol-1-yl-propyl)-amine] | 5.51 |
| COC(=O)Cn1nnnc1C(NCCCn1ccnc1)c1ccc(F)c(C#N)c1 (stereo not shown) [compound 53, {5-[(3-Cyano-4-fluoro-phenyl)-(3-imidazol-1-yl-propylamino)-methyl]-tetrazol-1-yl}-acetic methyl ester] | 5.40 |
| C=CCn1nnnc1C(NCCCn1ccnc1)c1ccc2ccccc2n1 (stereo not shown) [compound 47, [(1-Allyl-1H-tetrazol-5-yl)-quinolin-2-yl-methyl]-(3-imidazol-1-yl-propyl)-amine] | 5.51 |

Other lines, results leading:

| pIC50 | Compound |
| --- | --- |
| 5.03 | Cc1ccc2occ(C(Nc3ccc4[nH]cnc4c3)c3nnnn3CC3CCCO3)c(=O)c2c1 (stereo not shown) [compound 86, 3-{(1H-Benzoimidazol-5-ylamino)-[1-(tetrahydro-furan-2-ylmethyl)-1H-tetrazol-5-yl]-methyl}-6-methyl-chromen-4-one] |
| 5.51 | CCCCn1nnnc1C(NCCCn1ccnc1)c1ccc2ccccc2n1 (stereo not shown) [compound 22, [(1-Butyl-1H-tetrazol-5-yl)-quinolin-2-yl-methyl]-(3-imidazol-1-yl-propyl)-amine] |
| 5.31 | COC(=O)Cn1nnnc1C(NCCCn1ccnc1)[C@@H]1CCC=CO1 (stereo partly drawn) [compound 56, {5-[(S)-3,4-Dihydro-2H-pyran-2-yl-(3-imidazol-1-yl-propylamino)-methyl]-tetrazol-1-yl}-acetic methyl ester] |
| 4.65 | Clc1ccccc1Cn1nnnc1C(Nc1ccc2[nH]cnc2c1)c1cc2ccccc2o1 (stereo not shown) [compound 90, {Benzofuran-2-yl-[1-(2-chloro-benzyl)-1H-tetrazol-5-yl]-methyl}-(1H-benzoimidazol-5-yl)-amine] |
| 5.40 | CC(C)(C)OC(=O)Cn1nnnc1C(Nc1ccc2[nH]cnc2c1)c1ccc(Cl)c(F)c1 (stereo not shown) [compound 91, {5-[(1H-Benzoimidazol-5-ylamino)-(4-chloro-3-fluoro-phenyl)-methyl]-tetrazol-11-yl}-acetic acid tert-butyl ester] |
| 5.31 | CC(C)(C)Cn1nnnc1C(NCCCn1ccnc1)c1ccc2[nH]ccc2c1 (stereo not shown) [compound 65, [[1-(2,2-Dimethyl-propyl)-1H-tetrazol-5-yl]-(1H-indol-5-yl)-methyl]-(3-imidazol-1-yl-propyl)-amine] |
| 5.66 | CCCOc1cccc(C(Nc2ccc3[nH]cnc3c2)c2nnnn2Cc2cccnc2)c1 (stereo not shown) [compound 74, (1H-Benzoimidazol-5-yl)-[(3-propoxy-phenyl)-(1-pyridin-3-ylmethyl-1H-tetrazol-5-yl)-methyl]-amine] |
| 5.40 | Cc1cc(C)c(C(NCCCn2ccnc2)c2nnnn2C[C@@H]2CCCO2)cc1C (stereo partly drawn) [compound 17, (3-Imidazol-1-yl-propyl)-[{1-[(S)-1-(tetrahydro-furan-2-yl)methyl]-1H-tetrazol-5-yl}-(2,4,5-trimethyl-phenyl)-methyl]-amine] |
| 5.66 | COC(=O)Cn1nnnc1C(NCCCn1ccnc1)c1ccc2ccccc2n1 (stereo not shown) [compound 55, {5-[(3-Imidazol-1-yl-propylamino)-quinolin-2-yl-methyl]-tetrazol-1-yl}-acetic methyl ester] |
| 5.51 | c1ccc2oc(C(Nc3ccc4[nH]cnc4c3)c3nnnn3C3CCCCC3)cc2c1 (stereo not shown) [compound 79, [Benzofuran-2-yl-(1-cyclohexyl-1H-tetrazol-5-yl)-methyl]-(1H-benzoimidazol-5-yl)-amine] |
| 5.17 | CCCC(C)C(Nc1ccc2[nH]cnc2c1)c1nnnn1CC(=O)N1CCc2ccccc2C1 (stereo not shown) [compound 98, 2-{5-[1-(1H-Benzoimidazol-5-ylamino)-2-methyl-pentyl]-tetrazol-1-yl}-1-(3,4-dihydro-1H-isoquinolin-2-yl)-ethanone] |
| 5.31 | COCCn1nnnc1C(NCCCn1ccnc1)c1ccc2[nH]ccc2c1 (stereo not shown) [compound 41, (3-Imidazol-1-yl-propyl)-{(1H-indol-5-yl)-[1-(2-methoxy-ethyl)-1H-tetrazol-5-yl]-methyl}-amine] |
| 5.66 | CCCCn1nnnc1C(NCCCn1ccnc1)c1cc(C)ccc1O (stereo not shown) [compound 19, 2[(1-Butyl-1H-tetrazol-5-yl)-(3-imidazol-1-yl-propylamino)-mehtyl]-4-methyl-phenol] |
